Test results taken from publication PMC10786919, “Design-rules for stapled peptides with in vivo activity and their application to Mdm2/X antagonists” (Nature Communications, 2024).
≈ marks a conversion by molar mass, not a printed value. Like-named read-outs stand apart in the source and are kept apart here. Positions of bridges follow the written chain, without caps; N, C: chain ends. Non-standard residues stand in square brackets, D forms with d. Residues, ends and D or L forms follow the SMILES beside them. Lys(N3) = [N-]=[N+]=NCCCC[C@H](N)C(=O)O; R8 = C=CCCCCCC[C@@](C)(N)C(=O)O; Cba = N[C@@H](CC1CCC1)C(=O)O; S5 = C=CCCC[C@](C)(N)C(=O)O; Aib = CC(C)(N)C(=O)O; βAla = NCCC(=O)O; Sar = CNCC(=O)O

Assays:
[1] = Lactate dehydrogenase (LDH) release assay; assay type: cell-based
Outline: (§1)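 LDH release, fluorometric membrane-integrity read-out; HCT116 with stable p53-responsive β-lactamase reporter; 8000 cells/well; 0.5% DMSO final; geometric mean, n≥3 biological replicates.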

HCT116 cells = assay: Lactate dehydrogenase (LDH) release assay; assay type: cell-based
Outline: as §1

[2] = Solubility assay (kinetic solubility, PBS pH 7); assay type: physicochemical; settings: pH 7, PBS; for solubility kinetic: pH 7, aqueous buffer, kinetic from dmso stock, read-out: Solubility
Outline: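 Std: 10 mM stock → 100 µM in ACN/MeOH/DMSO (10:80:10). Sol. [µM] = (sample peak area / std peak area) × std conc.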

in vitro = assay: in vitro
Outline: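 Azido-peptide permeability was read as loss of NanoBRET signal (donor 450 nm, acceptor 610 nm) after adding NanoBret618-azide at 10 μM final.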

[3] = Experimental LogD (partition coefficient); settings: for logD: Partition Coeff LogD
[4] = Nanoclick permeability assay EC50
[5] = 0% FBS 4Hr, read-out: LDH: Cytotoxicity assay: EC50
[6] = 10% FBS 4Hr, read-out: LDH: Cytotoxicity assay: EC50

Row | SMILES | EC50 ([1]; LDH: Cytotoxicity assay: EC50) [nM] | LDH: Cytotoxicity assay: % Effect (HCT116 cells) [%] | Solubility [2] | cell entry EC50 (in vitro; [4]) [nM] | EPSA (physchem) [A^2] | logD ([3]; not stated) | Partition Coeff LogD [3] | EC50 [1, 5] [nM] | EC50 [1, 6] [nM] | LDH: Cytotoxicity assay: % Effect (HCT116 cells; 0% FBS 4Hr) [%] | LDH: Cytotoxicity assay: % Effect (HCT116 cells; 10% FBS 4Hr) [%] | solubility kinetic [2] [µM] | cell entry EC50 (in vitro) [nM] | EC50 ([1]; 10% FBS 16Hr, read-out: LDH: Cytotoxicity assay: EC50) [nM] | LDH: Cytotoxicity assay: % Effect (HCT116 cells; 10% FBS 16Hr) [%] | logD ([3]; experimental)
1 | CC(C)C[C@@H]1NC(=O)[C@H](C)NC(=O)[C@H](Cc2c[nH]c3ccccc23)NC(=O)[C@H](Cc2ccc(O)cc2)NC(=O)[C@H](CCC(=O)O)NC(=O)[C@](C)(NC(=O)[C@H](Cc2ccccc2)NC(=O)[C@H](CO)NC(=O)[C@@H](NC(=O)[C@H](CO)NC(=O)CNC(=O)[C@@H](N)CCCCN=[N+]=[N-])[C@@H](C)O)CCCCCCC=CCCC[C@@](C)(C(N)=O)NC(=O)[C@H](CC(C)C)NC1=O [MP-0179] | > 50600 | 3.75 | Poorly Behaved | 503 | 230 | 2.57 |  |  |  |  |  |  |  |  |  | 
2 | CC(=O)N[C@@H](CCCCN=[N+]=[N-])C(=O)NCCC(=O)N[C@@H](CC(C)C)C(=O)N[C@H](C(=O)N[C@@H](Cc1ccccc1)C(=O)N[C@]1(C)CCCCCCC=CCCC[C@@](C)(C(=O)N2CCC[C@H]2C(=O)N[C@@H](C)C(=O)N[C@@H](C)C(N)=O)NC(=O)[C@H](CC2CCC2)NC(=O)[C@H](CCC(N)=O)NC(=O)[C@H](C)NC(=O)[C@H](Cc2c[nH]c3ccccc23)NC(=O)[C@H](Cc2ccc(O)cc2)NC(=O)[C@H](CCC(=O)O)NC1=O)[C@@H](C)O [MP-184] (Ac-[Lys(N3)][βAla]LTF[R8]EYWAQ[Cba][S5]PAA-NH2; staple 6-13) | > 50600 | 10.48 | Poorly Behaved | 360 | 201 |  | Poorly Behaved |  |  |  |  |  |  |  |  | 
3 | CC(=O)N[C@@H](CCCCN=[N+]=[N-])C(=O)NCCC(=O)N[C@@H](C)C(=O)N[C@H](C(=O)N[C@@H](Cc1ccccc1)C(=O)N[C@]1(C)CCCCCCC=CCCC[C@@](C)(C(=O)N[C@@H](CO)C(=O)N[C@@H](C)C(=O)N[C@@H](C)C(N)=O)NC(=O)[C@H](CC2CCC2)NC(=O)[C@H](C)NC(=O)[C@H](C)NC(=O)[C@H](Cc2c[nH]c3ccccc23)NC(=O)[C@H](Cc2ccc(O)cc2)NC(=O)[C@H](C)NC1=O)[C@@H](C)O [MP-209, AZIDE-ATSP-7041 (L1A, E5A, Q9A)] (Ac-[Lys(N3)][βAla]ATF[R8]AYWAA[Cba][S5]SAA-NH2; staple 6-13) |  |  |  |  | 197 | 3.32 |  | > 50600 | > 50000 | -1.35 | 7.572 | 2 (≈ 3.63 µg/mL) | 906 |  |  | 
4 | CC(=O)N[C@@H](CCCCN=[N+]=[N-])C(=O)NCCC(=O)N[C@@H](CC(C)C)C(=O)N[C@H](C(=O)N[C@@H](Cc1ccccc1)C(=O)N[C@]1(C)CCCCCCC=CCCC[C@@](C)(C(=O)N[C@@H](CO)C(=O)NC(C)(C)C(=O)N[C@@H](C)C(N)=O)NC(=O)[C@H](CC2CCC2)NC(=O)[C@H](CCC(N)=O)NC(=O)[C@H](C)NC(=O)[C@H](Cc2c[nH]c3ccccc23)NC(=O)[C@H](Cc2ccc(O)cc2)NC(=O)[C@H](CCC(=O)O)NC1=O)[C@@H](C)O [MP-257] (Ac-[Lys(N3)][βAla]LTF[R8]EYWAQ[Cba][S5]S[Aib]A-NH2; staple 6-13) | 4550 | -4.69 |  | 469 | 210 | 2.97 |  |  |  |  |  | 25 (≈ 49.6 µg/mL) |  |  |  | 
5 | CC(=O)N[C@@H](CCCCN=[N+]=[N-])C(=O)NCCC(=O)N[C@@H](CC(C)C)C(=O)N[C@H](C(=O)N[C@@H](Cc1ccccc1)C(=O)N[C@]1(C)CCCCCCC=CCCC[C@@](C)(C(=O)N[C@@H](CO)C(=O)N[C@@H](C)C(=O)N[C@@H](C)C(N)=O)NC(=O)[C@H](CC2CCC2)NC(=O)[C@H](CCC(N)=O)NC(=O)[C@H](C)NC(=O)[C@H](Cc2c[nH]c3ccccc23)NC(=O)[C@H](Cc2ccc(O)cc2)NC(=O)[C@H](CCC(=O)O)NC1=O)C(C)C [MP-258] (Ac-[Lys(N3)][βAla]LVF[R8]EYWAQ[Cba][S5]SAA-NH2; staple 6-13) | > 50600 | -5.925 |  | 146 | 213 | 2.93 |  |  |  |  |  | 79 (≈ 155 µg/mL) |  |  |  | 
6 | CC(=O)N[C@@H](CCCCN=[N+]=[N-])C(=O)NCCC(=O)N1CCC[C@H]1C(=O)N[C@H](C(=O)N[C@@H](Cc1ccccc1)C(=O)N[C@]1(C)CCCCCCC=CCCC[C@@](C)(C(=O)N[C@@H](CO)C(=O)N[C@@H](C)C(=O)N[C@@H](C)C(N)=O)NC(=O)[C@H](CC2CCC2)NC(=O)[C@H](CCC(N)=O)NC(=O)[C@H](C)NC(=O)[C@H](Cc2c[nH]c3ccccc23)NC(=O)[C@H](Cc2ccc(O)cc2)NC(=O)[C@H](CCC(=O)O)NC1=O)[C@@H](C)O [MP-259] (Ac-[Lys(N3)][βAla]PTF[R8]EYWAQ[Cba][S5]SAA-NH2; staple 6-13) | > 50600 | 7.47 |  | 290 | 221 | 2.67 |  |  |  |  |  | 90.5 (≈ 177 µg/mL) |  |  |  | 
7 | CC(=O)N[C@@H](CCCCN=[N+]=[N-])C(=O)NCCC(=O)NCC(=O)N[C@H](C(=O)N[C@@H](Cc1ccccc1)C(=O)N[C@]1(C)CCCCCCC=CCCC[C@@](C)(C(=O)N[C@@H](CO)C(=O)N[C@@H](C)C(=O)N[C@@H](C)C(N)=O)NC(=O)[C@H](CC2CCC2)NC(=O)[C@H](CCC(N)=O)NC(=O)[C@H](C)NC(=O)[C@H](Cc2c[nH]c3ccccc23)NC(=O)[C@H](Cc2ccc(O)cc2)NC(=O)[C@H](CCC(=O)O)NC1=O)[C@@H](C)O [MP-261] (Ac-[Lys(N3)][βAla]GTF[R8]EYWAQ[Cba][S5]SAA-NH2; staple 6-13) | > 50600 | 8.826 |  | 273 | 222 | 2.62 |  |  |  |  |  | 89 (≈ 170 µg/mL) |  |  |  | 
8 | CC(=O)N[C@@H](CCCCN=[N+]=[N-])C(=O)NCCC(=O)N[C@@H](CC(C)C)C(=O)N[C@H](C(=O)N[C@@H](Cc1ccccc1)C(=O)N[C@]1(C)CCCCCCC=CCCC[C@@](C)(C(N)=O)NC(=O)[C@H](CC2CCC2)NC(=O)[C@H](CCC(N)=O)NC(=O)[C@H](C)NC(=O)[C@H](Cc2c[nH]c3ccccc23)NC(=O)[C@H](Cc2ccc(O)cc2)NC(=O)[C@H](CCC(=O)O)NC1=O)[C@@H](C)O [MP-326] (Ac-[Lys(N3)][βAla]LTF[R8]EYWAQ[Cba][S5]-NH2; staple 6-13) | 24800 | 7.44 |  | 215 | 222 | 2.88 |  |  |  |  |  | 3 (≈ 5.22 µg/mL) |  |  |  | 
9 | CC(=O)N[C@@H](CCCCN=[N+]=[N-])C(=O)NCCC(=O)N[C@@H](C)C(=O)N[C@H](C(=O)N[C@@H](Cc1ccccc1)C(=O)N[C@]1(C)CCCCCCC=CCCC[C@@](C)(C(=O)N[C@@H](C)C(=O)N[C@@H](C)C(=O)N[C@@H](C)C(N)=O)NC(=O)[C@H](CC2CCC2)NC(=O)[C@H](C)NC(=O)[C@H](C)NC(=O)[C@H](Cc2c[nH]c3ccccc23)NC(=O)[C@H](Cc2ccc(O)cc2)NC(=O)[C@H](C)NC1=O)[C@@H](C)O [MP-350, Azide-ATSP-7041 (L1A, E5A, Q9A, S12A)] (Ac-[Lys(N3)][βAla]ATF[R8]AYWAA[Cba][S5]AAA-NH2; staple 6-13) |  |  |  |  | 196 | 3.37 |  | > 50700 | > 50000 | -5.38 | 108.5 | 2 (≈ 3.59 µg/mL) | 695 | > 50700 | -2.204 | 3.37
10 | CC(=O)N[C@@H](CCCCN=[N+]=[N-])C(=O)NCCC(=O)N[C@@H](CC(C)C)C(=O)N[C@H](C(=O)N[C@@H](Cc1ccccc1)C(=O)N[C@]1(C)CCCCCCC=CCCC[C@@](C)(C(=O)N[C@@H](CO)C(=O)N[C@@H](C)C(=O)N[C@@H](C)C(N)=O)NC(=O)[C@H](CC2CCC2)NC(=O)[C@H](CCC(N)=O)NC(=O)CN(C)C(=O)[C@H](Cc2c[nH]c3ccccc23)NC(=O)[C@H](Cc2ccc(O)cc2)NC(=O)[C@H](CCC(=O)O)NC1=O)[C@@H](C)O [MP-351] (Ac-[Lys(N3)][βAla]LTF[R8]EYW[Sar]Q[Cba][S5]SAA-NH2; staple 6-13) | > 50000 | -3.92 |  | > 10000 | 193 | 2.26 |  |  |  |  |  | 29 (≈ 57.1 µg/mL) |  |  |  | 
